Assay results taken from patent US9113629B2, “4-amino-6-(4-substituted-phenyl)-picolinates and 6-amino-2-(4-substituted-phenyl)-pyrimidine-4-carboxylates and their use as herbicides” (DOW AGROSCIENCES LLC, priority 2013, dated 2015).

Tested on: not given
Test: not given
Settings: not given
Compound `C=Cc1c(N)nc(-c2ccc(F)c(F)c2F)nc1C(=O)O` [Compound 191, 6-Amino-2-(2,3,4-trifluorophenyl)-5-vinylpyrimidine-4-carboxylic acid] has a melting point of 154 to 157 °C.

Tested on: Key Broadleaf Weed and Crop Species
Test: Post-emergent Test II herbicidal activity (Table 5)
Assay type: in vivo
Settings: post-emergence, 336 h; ABUTH: velvetleaf (Abutilon theophrasti); 70 g ai/ha; post-emergent; 14 days after application; read-out: Visual Growth Reduction (%) 14 Days After Application ABUTH
In short: (§1)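 Visual injury ratings (0 = no injury, 100 = complete kill) were taken 14 d after treatment, relative to untreated plants. Seedlings at the first–second true leaf stage received overhead spray at 187 L/ha; the highest rate was serially diluted to ½×, ¼×, ⅛× and 1/16×.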
`C=Cc1c(N)nc(-c2ccc(F)c(F)c2F)nc1C(=O)O` [Compound 191, 6-Amino-2-(2,3,4-trifluorophenyl)-5-vinylpyrimidine-4-carboxylic acid] showed a pest or weed control at 70 g/ha of 60 to 74%.

Same assay, conditions: post-emergence, 336 h; ABUTH: velvetleaf (Abutilon theophrasti); 140 g ai/ha; post-emergent; 14 days after application; read-out: Visual Growth Reduction (%) 14 Days After Application ABUTH
`C=Cc1c(N)nc(-c2ccc(F)c(F)c2F)nc1C(=O)O` [Compound 191, 6-Amino-2-(2,3,4-trifluorophenyl)-5-vinylpyrimidine-4-carboxylic acid] showed a pest or weed control at 140 g/ha of 95 to 100%.

Same assay, conditions: post-emergence, 336 h; AMARE: redroot pigweed (Amaranthus retroflexus); 70 g ai/ha; post-emergent; 14 days after application; read-out: Visual Growth Reduction (%) 14 Days After Application AMARE
With `C=Cc1c(N)nc(-c2ccc(F)c(F)c2F)nc1C(=O)O` [Compound 191, 6-Amino-2-(2,3,4-trifluorophenyl)-5-vinylpyrimidine-4-carboxylic acid] the pest or weed control at 70 g/ha was 95 to 100%.

Same assay, conditions: post-emergence, 336 h; AMARE: redroot pigweed (Amaranthus retroflexus); 140 g ai/ha; post-emergent; 14 days after application; read-out: Visual Growth Reduction (%) 14 Days After Application AMARE
With `C=Cc1c(N)nc(-c2ccc(F)c(F)c2F)nc1C(=O)O` [Compound 191, 6-Amino-2-(2,3,4-trifluorophenyl)-5-vinylpyrimidine-4-carboxylic acid] the pest or weed control at 140 g/ha was 95 to 100%.

Same assay, conditions: post-emergence, 336 h; BRSNN: oilseed-rape, canola (Brassica napus); 70 g ai/ha; post-emergent; 14 days after application; read-out: Visual Growth Reduction (%) 14 Days After Application BRSNN
`C=Cc1c(N)nc(-c2ccc(F)c(F)c2F)nc1C(=O)O` [Compound 191, 6-Amino-2-(2,3,4-trifluorophenyl)-5-vinylpyrimidine-4-carboxylic acid] showed a pest or weed control at 70 g/ha of 95 to 100%.

Same assay, conditions: post-emergence, 336 h; BRSNN: oilseed-rape, canola (Brassica napus); 140 g ai/ha; post-emergent; 14 days after application; read-out: Visual Growth Reduction (%) 14 Days After Application BRSNN
With `C=Cc1c(N)nc(-c2ccc(F)c(F)c2F)nc1C(=O)O` [Compound 191, 6-Amino-2-(2,3,4-trifluorophenyl)-5-vinylpyrimidine-4-carboxylic acid] the pest or weed control at 140 g/ha was 95 to 100%.

Same assay, conditions: post-emergence, 336 h; CHEAL: lambsquarters (Chenopodium album); 70 g ai/ha; post-emergent; 14 days after application; read-out: Visual Growth Reduction (%) 14 Days After Application CHEAL
For `C=Cc1c(N)nc(-c2ccc(F)c(F)c2F)nc1C(=O)O` [Compound 191, 6-Amino-2-(2,3,4-trifluorophenyl)-5-vinylpyrimidine-4-carboxylic acid], the pest or weed control at 70 g/ha was 95 to 100%.

Same assay, conditions: post-emergence, 336 h; CHEAL: lambsquarters (Chenopodium album); 140 g ai/ha; post-emergent; 14 days after application; read-out: Visual Growth Reduction (%) 14 Days After Application CHEAL
With `C=Cc1c(N)nc(-c2ccc(F)c(F)c2F)nc1C(=O)O` [Compound 191, 6-Amino-2-(2,3,4-trifluorophenyl)-5-vinylpyrimidine-4-carboxylic acid] the pest or weed control at 140 g/ha was 95 to 100%.

Same assay, conditions: post-emergence, 336 h; EPHHL: wild poinsettia (Euphorbia heterophylla); 70 g ai/ha; post-emergent; 14 days after application; read-out: Visual Growth Reduction (%) 14 Days After Application EPHHL
Compound `C=Cc1c(N)nc(-c2ccc(F)c(F)c2F)nc1C(=O)O` [Compound 191, 6-Amino-2-(2,3,4-trifluorophenyl)-5-vinylpyrimidine-4-carboxylic acid] has a pest or weed control at 70 g/ha of 95 to 100%.

Same assay, conditions: post-emergence, 336 h; EPHHL: wild poinsettia (Euphorbia heterophylla); 140 g ai/ha; post-emergent; 14 days after application; read-out: Visual Growth Reduction (%) 14 Days After Application EPHHL
In the case of `C=Cc1c(N)nc(-c2ccc(F)c(F)c2F)nc1C(=O)O` [Compound 191, 6-Amino-2-(2,3,4-trifluorophenyl)-5-vinylpyrimidine-4-carboxylic acid], the pest or weed control at 140 g/ha is reported as 95 to 100%.

Same assay, conditions: post-emergence, 336 h; HELAN: sunflower (Helianthus annuus); 70 g ai/ha; post-emergent; 14 days after application; read-out: Visual Growth Reduction (%) 14 Days After Application HELAN
`C=Cc1c(N)nc(-c2ccc(F)c(F)c2F)nc1C(=O)O` [Compound 191, 6-Amino-2-(2,3,4-trifluorophenyl)-5-vinylpyrimidine-4-carboxylic acid] gave a pest or weed control at 70 g/ha of 95 to 100%.

Same assay, conditions: post-emergence, 336 h; HELAN: sunflower (Helianthus annuus); 140 g ai/ha; post-emergent; 14 days after application; read-out: Visual Growth Reduction (%) 14 Days After Application HELAN
In the case of `C=Cc1c(N)nc(-c2ccc(F)c(F)c2F)nc1C(=O)O` [Compound 191, 6-Amino-2-(2,3,4-trifluorophenyl)-5-vinylpyrimidine-4-carboxylic acid], the pest or weed control at 140 g/ha is reported as 95 to 100%.

Same assay, conditions: post-emergence, 336 h; VIOTR: wild pansy (Viola tricolor); 70 g ai/ha; post-emergent; 14 days after application; read-out: Visual Growth Reduction (%) 14 Days After Application VIOTR
With `C=Cc1c(N)nc(-c2ccc(F)c(F)c2F)nc1C(=O)O` [Compound 191, 6-Amino-2-(2,3,4-trifluorophenyl)-5-vinylpyrimidine-4-carboxylic acid] the pest or weed control at 70 g/ha was 45 to 59%.

Same assay, conditions: post-emergence, 336 h; VIOTR: wild pansy (Viola tricolor); 140 g ai/ha; post-emergent; 14 days after application; read-out: Visual Growth Reduction (%) 14 Days After Application VIOTR
`C=Cc1c(N)nc(-c2ccc(F)c(F)c2F)nc1C(=O)O` [Compound 191, 6-Amino-2-(2,3,4-trifluorophenyl)-5-vinylpyrimidine-4-carboxylic acid] gave a pest or weed control at 140 g/ha of 45 to 59%.

Tested on: Key Grass and Sedge Weeds as well as Grass Crops
Test: Post-emergent Test II herbicidal activity (Table 6)
Assay type: in vivo
Settings: Triticum aestivum, post-emergence, 336 h, TRZSS (wheat), application rate 70 g ai/ha, read-out: Visual Growth Reduction (%) 14 Days After Application, TRZSS
In short: as §1
Compound `C=Cc1c(N)nc(-c2ccc(F)c(F)c2F)nc1C(=O)O` [Compound 191, 6-Amino-2-(2,3,4-trifluorophenyl)-5-vinylpyrimidine-4-carboxylic acid] has a pest or weed control at 70 g/ha of 0 to 29%.

Same assay, conditions: Triticum aestivum, post-emergence, 336 h, TRZSS (wheat), application rate 140 g ai/ha, read-out: Visual Growth Reduction (%) 14 Days After Application, TRZSS
Compound `C=Cc1c(N)nc(-c2ccc(F)c(F)c2F)nc1C(=O)O` [Compound 191, 6-Amino-2-(2,3,4-trifluorophenyl)-5-vinylpyrimidine-4-carboxylic acid] has a pest or weed control at 140 g/ha of 30 to 44%.

Same assay, conditions: post-emergence, 336 h, CYPES: yellow nutsedge (Cyperus esculentus), application rate 70 g ai/ha, read-out: Visual Growth Reduction (%) 14 Days After Application, CYPES
`C=Cc1c(N)nc(-c2ccc(F)c(F)c2F)nc1C(=O)O` [Compound 191, 6-Amino-2-(2,3,4-trifluorophenyl)-5-vinylpyrimidine-4-carboxylic acid] showed a pest or weed control at 70 g/ha of 0 to 29%.

Same assay, conditions: post-emergence, 336 h, CYPES: yellow nutsedge (Cyperus esculentus), application rate 140 g ai/ha, read-out: Visual Growth Reduction (%) 14 Days After Application, CYPES
`C=Cc1c(N)nc(-c2ccc(F)c(F)c2F)nc1C(=O)O` [Compound 191, 6-Amino-2-(2,3,4-trifluorophenyl)-5-vinylpyrimidine-4-carboxylic acid] showed a pest or weed control at 140 g/ha of 60 to 74%.

Same assay, conditions: post-emergence, 336 h, DIGSA: crabgrass (Digitaria sanguinalis), application rate 70 g ai/ha, read-out: Visual Growth Reduction (%) 14 Days After Application, DIGSA
`C=Cc1c(N)nc(-c2ccc(F)c(F)c2F)nc1C(=O)O` [Compound 191, 6-Amino-2-(2,3,4-trifluorophenyl)-5-vinylpyrimidine-4-carboxylic acid] showed a pest or weed control at 70 g/ha of 60 to 74%.

Same assay, conditions: post-emergence, 336 h, DIGSA: crabgrass (Digitaria sanguinalis), application rate 140 g ai/ha, read-out: Visual Growth Reduction (%) 14 Days After Application, DIGSA
Compound `C=Cc1c(N)nc(-c2ccc(F)c(F)c2F)nc1C(=O)O` [Compound 191, 6-Amino-2-(2,3,4-trifluorophenyl)-5-vinylpyrimidine-4-carboxylic acid] has a pest or weed control at 140 g/ha of 75 to 84%.

Same assay, conditions: post-emergence, 336 h, ECHCG: barnyardgrass (Echinochloa crus-galli), application rate 70 g ai/ha, read-out: Visual Growth Reduction (%) 14 Days After Application, ECHCG
Compound `C=Cc1c(N)nc(-c2ccc(F)c(F)c2F)nc1C(=O)O` [Compound 191, 6-Amino-2-(2,3,4-trifluorophenyl)-5-vinylpyrimidine-4-carboxylic acid] has a pest or weed control at 70 g/ha of 85 to 94%.

Same assay, conditions: post-emergence, 336 h, ECHCG: barnyardgrass (Echinochloa crus-galli), application rate 140 g ai/ha, read-out: Visual Growth Reduction (%) 14 Days After Application, ECHCG
With `C=Cc1c(N)nc(-c2ccc(F)c(F)c2F)nc1C(=O)O` [Compound 191, 6-Amino-2-(2,3,4-trifluorophenyl)-5-vinylpyrimidine-4-carboxylic acid] the pest or weed control at 140 g/ha was 75 to 84%.

Same assay, conditions: post-emergence, 336 h, ORYSA: rice (Oryza sativa), application rate 70 g ai/ha, read-out: Visual Growth Reduction (%) 14 Days After Application, ORYSA
Compound `C=Cc1c(N)nc(-c2ccc(F)c(F)c2F)nc1C(=O)O` [Compound 191, 6-Amino-2-(2,3,4-trifluorophenyl)-5-vinylpyrimidine-4-carboxylic acid] has a pest or weed control at 70 g/ha of 0 to 29%.

Same assay, conditions: post-emergence, 336 h, ORYSA: rice (Oryza sativa), application rate 140 g ai/ha, read-out: Visual Growth Reduction (%) 14 Days After Application, ORYSA
In the case of `C=Cc1c(N)nc(-c2ccc(F)c(F)c2F)nc1C(=O)O` [Compound 191, 6-Amino-2-(2,3,4-trifluorophenyl)-5-vinylpyrimidine-4-carboxylic acid], the pest or weed control at 140 g/ha is reported as 0 to 29%.

Same assay, conditions: post-emergence, 336 h, SETFA: giant foxtail (Setaria faberi), application rate 70 g ai/ha, read-out: Visual Growth Reduction (%) 14 Days After Application, SETFA
Compound `C=Cc1c(N)nc(-c2ccc(F)c(F)c2F)nc1C(=O)O` [Compound 191, 6-Amino-2-(2,3,4-trifluorophenyl)-5-vinylpyrimidine-4-carboxylic acid] has a pest or weed control at 70 g/ha of 75 to 84%.

Same assay, conditions: post-emergence, 336 h, SETFA: giant foxtail (Setaria faberi), application rate 140 g ai/ha, read-out: Visual Growth Reduction (%) 14 Days After Application, SETFA
Compound `C=Cc1c(N)nc(-c2ccc(F)c(F)c2F)nc1C(=O)O` [Compound 191, 6-Amino-2-(2,3,4-trifluorophenyl)-5-vinylpyrimidine-4-carboxylic acid] has a pest or weed control at 140 g/ha of 75 to 84%.

Same assay, conditions: post-emergence, 336 h, SORVU: grain sorghum (Sorghum vulgare), application rate 70 g ai/ha, read-out: Visual Growth Reduction (%) 14 Days After Application, SORVU
Work on `C=Cc1c(N)nc(-c2ccc(F)c(F)c2F)nc1C(=O)O` [Compound 191, 6-Amino-2-(2,3,4-trifluorophenyl)-5-vinylpyrimidine-4-carboxylic acid] yielded a pest or weed control at 70 g/ha of 45 to 59%.

Same assay, conditions: post-emergence, 336 h, SORVU: grain sorghum (Sorghum vulgare), application rate 140 g ai/ha, read-out: Visual Growth Reduction (%) 14 Days After Application, SORVU
In the case of `C=Cc1c(N)nc(-c2ccc(F)c(F)c2F)nc1C(=O)O` [Compound 191, 6-Amino-2-(2,3,4-trifluorophenyl)-5-vinylpyrimidine-4-carboxylic acid], the pest or weed control at 140 g/ha is reported as 45 to 59%.

Same assay, conditions: post-emergence, 336 h, ZEAMX: maize, corn (Zea mays), application rate 70 g ai/ha, read-out: Visual Growth Reduction (%) 14 Days After Application, ZEAMX
With `C=Cc1c(N)nc(-c2ccc(F)c(F)c2F)nc1C(=O)O` [Compound 191, 6-Amino-2-(2,3,4-trifluorophenyl)-5-vinylpyrimidine-4-carboxylic acid] the pest or weed control at 70 g/ha was 45 to 59%.

Same assay, conditions: post-emergence, 336 h, ZEAMX: maize, corn (Zea mays), application rate 140 g ai/ha, read-out: Visual Growth Reduction (%) 14 Days After Application, ZEAMX
Work on `C=Cc1c(N)nc(-c2ccc(F)c(F)c2F)nc1C(=O)O` [Compound 191, 6-Amino-2-(2,3,4-trifluorophenyl)-5-vinylpyrimidine-4-carboxylic acid] yielded a pest or weed control at 140 g/ha of 60 to 74%.
